The values below come from BindingDB's records for doi:10.1016/j.bmc.2006.08.003 (Hokuriku University, 2006).

The target in the test is T1, Lysosomal acid glucosylceramidase (Homo sapiens, UniProt P04062).
T1 sequence (P04062 whole entry): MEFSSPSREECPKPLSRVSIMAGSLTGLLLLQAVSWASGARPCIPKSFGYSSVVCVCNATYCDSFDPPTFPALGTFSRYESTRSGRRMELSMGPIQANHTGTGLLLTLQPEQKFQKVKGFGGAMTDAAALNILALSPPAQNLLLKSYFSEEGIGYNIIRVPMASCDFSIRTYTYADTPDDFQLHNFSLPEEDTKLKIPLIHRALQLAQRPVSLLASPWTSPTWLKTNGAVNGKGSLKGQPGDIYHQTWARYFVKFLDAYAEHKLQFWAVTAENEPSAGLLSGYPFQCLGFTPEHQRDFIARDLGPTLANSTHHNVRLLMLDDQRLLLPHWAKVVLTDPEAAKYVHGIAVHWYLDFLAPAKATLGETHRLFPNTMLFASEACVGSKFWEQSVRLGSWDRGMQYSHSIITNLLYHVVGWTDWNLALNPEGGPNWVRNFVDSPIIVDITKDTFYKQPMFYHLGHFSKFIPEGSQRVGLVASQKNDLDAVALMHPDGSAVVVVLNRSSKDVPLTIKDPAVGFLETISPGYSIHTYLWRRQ
Kind of test: In Vitro Enzyme Inhibition. The note with it: pH 5.5; 37 °C.
`CCCCCCCCN1C[C@H](O)[C@@H](O)[C@H](O)[C@H]1CO` [(2R,3R,4R,5S)-2-(hydroxymethyl)-1-octylpiperidine-3,4,5-triol] returned a half-maximal inhibitory concentration (IC50) of 0.82 µM and a Ki of 420 nM.
The like results for `CCCCCCCCC[C@H]1N[C@H](CO)[C@@H](O)[C@H](O)[C@H]1O` [CN-DNJ] were, in that order, 0.27 µM and 200 nM.
`CCCC[C@H]1N[C@H](CO)[C@@H](O)[C@H](O)[C@H]1O` [(2R,3S,4R,5R,6R)-2-butyl-6-(hydroxymethyl)piperidine-3,4,5-triol] gave an inhibitory constant (Ki) of 110000 nM.
In the case of `CCCN1C[C@H](O)[C@@H](O)[C@H](O)[C@H]1CO` [(2R,3R,4R,5S)-2-(hydroxymethyl)-1-propylpiperidine-3,4,5-triol], half-maximal inhibition (IC50) required 700 µM.
`C[C@H]1N[C@H](CO)[C@@H](O)[C@H](O)[C@H]1O` [(2R,3R,4R,5S,6R)-2-(hydroxymethyl)-6-methylpiperidine-3,4,5-triol] yielded an IC50 of 900 µM.
`CCCCCCCC[C@H]1N[C@H](CO)[C@@H](O)[C@H](O)[C@H]1O` [(2R,3R,4R,5S,6R)-2-(hydroxymethyl)-6-octylpiperidine-3,4,5-triol] had a half-maximal inhibitory concentration (IC50) of 0.5 µM and a Ki of 280 nM.
For `CCCCCCN1C[C@H](O)[C@@H](O)[C@H](O)[C@H]1CO` [(2R,3R,4R,5S)-1-hexyl-2-(hydroxymethyl)piperidine-3,4,5-triol], in that order: 13 µM and 5500 nM.
In the case of `CCCCCC[C@H]1N[C@H](CO)[C@@H](O)[C@H](O)[C@H]1O` [(2R,3S,4R,5R,6R)-2-hexyl-6-(hydroxymethyl)piperidine-3,4,5-triol], the IC50 turned out to be 4.2 µM and the inhibition constant Ki turned out to be 2300 nM.
Consider `CCC[C@H]1N[C@H](CO)[C@@H](O)[C@H](O)[C@H]1O` [(2R,3R,4R,5S,6R)-2-(hydroxymethyl)-6-propylpiperidine-3,4,5-triol], for which the IC50 worked out at 400 µM.
For `CN1C[C@H](O)[C@@H](O)[C@H](O)[C@H]1CO` [(2R,3R,4R,5S)-2-(hydroxymethyl)-1-methylpiperidine-3,4,5-triol], the half-inhibitory concentration (IC50) came to 150 µM.
